# Source: article PMC12362764, “Novel Cyano‐Artemisinin Dimer ZQJ29 Targets PARP1 to Induce Ferroptosis in Pancreatic Cancer Treatment” (Advanced Science, 2025)
# What was measured:
# H1975 = assay: CCK-8 cytotoxicity assay, H1975; assay type: cell-based; settings: Homo sapiens, NCI-H1975, 72 h
# Procedure: (§1) Cell viability was evaluated using the Cell Counting Kit‐8 (Beyotime, Shanghai, China) assay. Cells were seeded in 96‐well plates at a density of 2×10^3 cells to allow for attachment. After treatment with ZQJ29 (0.001, 0.01, 0.1, 10, and 25 µM) for 24, 48, and 72 h, 10 µL of CCK‐8 solution was added to each well and incubated for 1 h. The optical density values were then measured at 450 nm using a multifunctional enzyme‐linked immunosorbent assay reader (Tecan, Spark, Switzerland).
# [1] = system: PARP1, TP53, SLC7A11, and GPX4; assay: Western blot of PARP1, TP53, SLC7A11 and GPX4 in cells; assay type: cell-based; settings: PANC-1 and KP4 cell lines, dose-dependent
# Procedure: For western blotting analysis, ZQJ29‐treated cells were lysed with RIPA Lysis Buffer (Yeasen, Shanghai, China) containing protease and phosphatase inhibitors (Yeasen, Shanghai, China) on ice. The cell lysates were quantified using the BCA Protein Assay Kit (Beyotime, Shanghai, China). Samples were subjected to SDS‐PAGE and transferred to PVDF membranes (Beyotime, Shanghai, China). The membranes were blocked with 5% nonfat milk in TBST (Buffered Saline with 0.1% Tween 20) for 1 h, followed by overnight incubation at 4 °C with primary antibodies. After washing the membranes three times with TBST, they were incubated with the appropriate secondary antibodies for 2 h at room temperature. Following another three times with TBST, the bands on the membranes were detected using the ECL‐Plus Western Blotting Detection System (Yeasen, Shanghai, China).
# A549 = assay: CCK-8 cytotoxicity assay, A549; assay type: cell-based; settings: Homo sapiens, A549, 72 h
# Procedure: as §1
# LX2 = assay: CCK-8 cytotoxicity assay, LX2 (normal cell line); assay type: cell-based; settings: Homo sapiens, LX-2, 72 h
# Procedure: as §1
# KP4 = assay: CCK-8 cytotoxicity assay, KP4; assay type: cell-based
# Procedure: as §1
# PANC-1 tumors = assay: PANC-1 subcutaneous xenograft antitumor activity; assay type: in vivo, BALB/c nude mice
# Procedure: (§2) Five‐week‐old male BALB/c nude mice were purchased from Shanghai Jihui Laboratory Animal Breeding Co., Ltd. (Shanghai, China). After a one‐week acclimatization period, PANC‐1 cells were subcutaneously injected at a dose of 5 × 10^6 cells per mouse. Four weeks post‐injection, once tumor volumes reached 50–100 mm^3, the tumor‐bearing animals were randomly divided into four groups, each consisting of six animals. ZQJ29 was prepared in a 0.5% CMC‐Na solution, while OXA was dissolved in saline. The control group was treated with oral gavage of 0.5% CMC‐Na, while the positive control group was administered intraperitoneal injections of OXA at a dosage of 3 mg kg^−1 every three days. The test groups were treated with oral gavage of ZQJ29 at dosages of 25 and 50 mg kg day^−1. Mouse weights were monitored every other day. Tumor measurements were taken every other day using calipers, and the tumor volume was calculated using the following formula: ½ × length × width^2. Drug administered continued for three weeks. After blood collection at the end of the administration, the mice were humanely euthanized, and their vital organs were promptly harvested, preserved, and embedded in paraffin for H&E staining.
# MCF = assay: CCK-8 cytotoxicity assay, MCF; assay type: cell-based; settings: 72 h
# Procedure: as §1
# PARP1 = PARP1 (Homo sapiens, UniProt P09874); assay: SPR analysis (Biacore S200); assay type: binding; design: purchased Sino Biological 11040‐H08B; settings: 25 °C, Steady State Affinity model
# Sequence of PARP1 (P09874 whole entry): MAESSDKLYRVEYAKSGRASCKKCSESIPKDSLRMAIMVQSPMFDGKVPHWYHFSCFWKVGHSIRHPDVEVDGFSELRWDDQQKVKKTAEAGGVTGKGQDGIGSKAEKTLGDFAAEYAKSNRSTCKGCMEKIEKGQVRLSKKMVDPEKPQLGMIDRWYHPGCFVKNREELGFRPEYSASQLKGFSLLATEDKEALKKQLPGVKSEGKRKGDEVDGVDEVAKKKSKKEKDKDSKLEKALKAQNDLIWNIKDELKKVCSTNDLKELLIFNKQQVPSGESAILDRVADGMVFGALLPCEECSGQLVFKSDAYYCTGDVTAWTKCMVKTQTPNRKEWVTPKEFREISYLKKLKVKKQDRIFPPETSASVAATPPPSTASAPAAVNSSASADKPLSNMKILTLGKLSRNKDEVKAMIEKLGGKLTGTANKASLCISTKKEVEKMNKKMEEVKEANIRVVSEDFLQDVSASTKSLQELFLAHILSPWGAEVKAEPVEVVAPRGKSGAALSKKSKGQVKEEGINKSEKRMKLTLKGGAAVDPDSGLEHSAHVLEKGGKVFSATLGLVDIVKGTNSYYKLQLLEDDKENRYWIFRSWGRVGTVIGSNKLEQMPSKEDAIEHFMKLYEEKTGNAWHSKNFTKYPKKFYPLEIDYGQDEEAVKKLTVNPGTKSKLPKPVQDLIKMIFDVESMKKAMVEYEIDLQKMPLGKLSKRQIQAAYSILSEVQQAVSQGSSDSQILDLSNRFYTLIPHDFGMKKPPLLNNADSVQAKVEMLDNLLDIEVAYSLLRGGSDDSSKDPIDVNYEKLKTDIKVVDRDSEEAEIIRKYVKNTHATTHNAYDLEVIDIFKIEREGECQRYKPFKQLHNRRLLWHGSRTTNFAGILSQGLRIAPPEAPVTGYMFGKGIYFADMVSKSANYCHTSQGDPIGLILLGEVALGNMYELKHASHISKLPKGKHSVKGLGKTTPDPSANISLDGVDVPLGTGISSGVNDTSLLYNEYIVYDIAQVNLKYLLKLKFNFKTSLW
# Procedure: The interaction between ZQJ29 and PARP1 was assessed by SPR with the Biacore S200 system at 25 °C (Cytiva). Recombinant human PARP1 protein (Sino Biological, 11040‐H08B) was immobilized on an activated carboxymethylated 5 (CM5) sensor chip using the amine coupling method. Gradient concentrations of 3 were injected at a flow rate of 40 µL min^−1 in a running buffer [5% (v/v) DMSO in PBS·P]. The results were analyzed with the Biacore evaluation software (S200 version). Data were fitted to the Steady State Affinity model, and kinetic parameters were derived.
# KP4 cells = assay: Cell cycle analysis (PI, flow cytometry), KP4; assay type: cell-based; settings: KP4, 24 h
# Procedure: PANC‐1 and KP4 cells were placed in 6 cm dishes and exposed to designated concentrations of ZQJ29 (1 µM) for 24 h before trypsinization. After centrifugation, the cells were secured and preserved in ice‐cold 70% ethanol and stored at 4 °C for 24 h. They were then thoroughly washed with PBS multiple times. Next, the fixed cells were incubated in PBS supplemented with RNase and PI solution for 30 min at 37 °C, protected from light exposure. Cell cycle progression was assessed using a flow cytometer. This experimental procedure was systematically conducted in three separate trials, with each trial done in triplicate. Cell cycle kits were obtained from Beyotime (Shanghai, China).
# [2] = Toxicity in tumor-bearing mice (body weight, ALT/AST, H&E); assay type: in vivo, BALB/c nude mice
# Procedure: as §2
# Following the experiments, organs from mice, including hearts, livers, spleens, lungs, and kidneys were swiftly collected and fixed in 4% paraformaldehyde overnight. The tissues were then embedded in paraffin. Afterward, 4‐µm‐thick sections were produced and stained using H&E. Images of these sections were captured with a Leica DM4000b microscope (Germany).
# Blood samples were collected and placed in a biochemical incubator for 30 min, followed by centrifugation at 6000 rpm for 10 min. The supernatant was used to measure the following indicators: ALT and AST (both from Jiancheng, Nanjing, China).
# [3] = tumor tissue and proteomic analyses
structure (smiles),measurement,setting,value
CC1CCC2C(C)C(OCCN(C#N)CCOC3OC4OC5(C)CCC6C(C)CCC(C3C)C46OO5)OC3OC4(C)CCC1C32OO4 (stereo not shown) [ZQJ29],IC50,H1975,2190 ± 113 nM
same,"expression of PARP1, SLC7A11 and GPX4",[1],downregulated
same,expression of TP53,[1],upregulated
same,IC50,A549,> 10000 nM
same,IC50,LX2,> 10000 nM
same,IC50,"KP4; Homo sapiens, KP-4, KP4, as printed in the text",885 ± 106 nM
same,enhanced cytotoxic effect compared to OXA and DHA,KP4; KP4 cells,10 fold
same,potency of antitumor over DHA,"KP4; discussion, cell line not stated",10 fold
same,tumor size and weight,"PANC-1 tumors; 25 or 50 mg/kg oral, vs control group",significantly reduced
same,tumor growth,"PANC-1 tumors; ZQJ29 25 and 50 mg/kg/day oral gavage, OXA 3 mg/kg i.p. every three days, three weeks, vs control",effectively inhibited
same,expression of Ki67 and PCNA in tumor tissue (IHC),"PANC-1 tumors; after treatment, vs control",significantly reduced
same,"expression of PARP1, SLC7A11 and GPX4",PANC-1 tumors; [3],downregulated
same,expression of TP53,PANC-1 tumors; [3],upregulated
same,IC50,MCF,759 ± 311 nM
same,Kd,PARP1,2860 nM
same,cell cycle arrest,KP4 cells,remarkable G2/M phase arrest
same,post-experiment levels of ALT and AST,"[2]; ZQJ29 50 mg/kg, OXA 3 mg/kg i.p.",no significant alterations
same,major organ damage (H&E staining),"[2]; hearts, livers, spleens, lungs, kidneys",no significant major organ damage
same,body weight during the whole treatment period,"[2]; tumor-bearing nude mice, three weeks",remained stable
